Holding throughout (format): functional
The target in test [1] is T1, Apoptotic protease-activating factor 1 (Homo sapiens, UniProt O14727).
T1 sequence (O14727 whole entry): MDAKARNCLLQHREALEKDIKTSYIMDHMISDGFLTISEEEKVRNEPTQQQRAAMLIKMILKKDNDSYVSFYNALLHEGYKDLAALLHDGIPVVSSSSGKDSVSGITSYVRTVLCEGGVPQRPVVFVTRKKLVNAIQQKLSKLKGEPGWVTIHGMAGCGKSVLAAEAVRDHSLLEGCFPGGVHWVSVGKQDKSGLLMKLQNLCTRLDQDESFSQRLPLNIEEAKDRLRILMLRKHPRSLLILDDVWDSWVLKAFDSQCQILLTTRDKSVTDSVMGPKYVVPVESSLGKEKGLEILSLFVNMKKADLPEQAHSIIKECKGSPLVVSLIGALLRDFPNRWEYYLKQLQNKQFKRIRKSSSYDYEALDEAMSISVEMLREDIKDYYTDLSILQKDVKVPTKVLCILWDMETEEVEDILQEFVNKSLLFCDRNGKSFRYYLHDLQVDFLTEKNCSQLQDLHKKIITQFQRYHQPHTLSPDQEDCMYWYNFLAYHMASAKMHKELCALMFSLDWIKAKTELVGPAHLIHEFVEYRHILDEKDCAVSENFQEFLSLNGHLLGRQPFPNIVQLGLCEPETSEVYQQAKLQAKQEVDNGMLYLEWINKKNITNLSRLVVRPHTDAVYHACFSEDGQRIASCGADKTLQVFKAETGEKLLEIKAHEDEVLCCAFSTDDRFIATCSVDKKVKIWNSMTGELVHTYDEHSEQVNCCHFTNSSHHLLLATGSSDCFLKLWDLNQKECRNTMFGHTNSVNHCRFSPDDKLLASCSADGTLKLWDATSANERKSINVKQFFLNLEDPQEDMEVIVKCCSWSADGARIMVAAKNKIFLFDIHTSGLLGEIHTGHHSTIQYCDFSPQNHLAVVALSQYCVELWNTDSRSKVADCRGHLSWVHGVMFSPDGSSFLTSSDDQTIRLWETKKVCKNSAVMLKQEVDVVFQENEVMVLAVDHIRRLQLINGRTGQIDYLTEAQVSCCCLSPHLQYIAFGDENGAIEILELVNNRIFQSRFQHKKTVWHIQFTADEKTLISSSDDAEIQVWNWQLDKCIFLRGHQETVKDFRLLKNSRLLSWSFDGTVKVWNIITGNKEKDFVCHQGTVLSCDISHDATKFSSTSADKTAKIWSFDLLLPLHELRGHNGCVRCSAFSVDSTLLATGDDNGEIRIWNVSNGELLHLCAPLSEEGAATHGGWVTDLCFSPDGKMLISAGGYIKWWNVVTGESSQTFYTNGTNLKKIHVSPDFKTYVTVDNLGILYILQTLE

Test [2] deals with T2, Replicative DNA helicase DnaB (Mycobacterium tuberculosis, UniProt P9WMR3).
T2 sequence (P9WMR3 whole entry): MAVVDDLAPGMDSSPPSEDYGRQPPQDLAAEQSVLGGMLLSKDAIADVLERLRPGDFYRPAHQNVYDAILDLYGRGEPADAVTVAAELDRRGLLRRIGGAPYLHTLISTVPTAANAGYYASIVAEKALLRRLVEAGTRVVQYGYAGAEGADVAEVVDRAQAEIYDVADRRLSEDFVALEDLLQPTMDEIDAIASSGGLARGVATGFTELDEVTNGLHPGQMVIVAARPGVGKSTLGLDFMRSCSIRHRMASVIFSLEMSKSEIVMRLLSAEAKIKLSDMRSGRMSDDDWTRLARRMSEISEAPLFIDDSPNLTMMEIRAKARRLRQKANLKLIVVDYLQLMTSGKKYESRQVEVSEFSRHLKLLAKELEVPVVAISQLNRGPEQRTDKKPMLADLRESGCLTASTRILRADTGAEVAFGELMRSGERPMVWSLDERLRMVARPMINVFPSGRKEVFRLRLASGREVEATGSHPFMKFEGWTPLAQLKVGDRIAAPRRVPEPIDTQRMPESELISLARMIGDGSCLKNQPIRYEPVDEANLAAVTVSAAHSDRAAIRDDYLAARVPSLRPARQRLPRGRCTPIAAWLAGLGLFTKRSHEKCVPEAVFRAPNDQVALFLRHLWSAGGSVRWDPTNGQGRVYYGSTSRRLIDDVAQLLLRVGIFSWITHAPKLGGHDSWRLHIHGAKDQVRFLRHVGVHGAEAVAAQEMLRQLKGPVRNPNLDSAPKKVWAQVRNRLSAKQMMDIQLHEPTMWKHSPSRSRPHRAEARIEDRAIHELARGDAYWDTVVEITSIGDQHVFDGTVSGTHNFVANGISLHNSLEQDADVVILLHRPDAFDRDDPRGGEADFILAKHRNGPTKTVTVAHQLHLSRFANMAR
Put plainly: DnaB intein splicing inhibitors, dose response, biochemical, cell-free fluorescence (AID 449749).

Test [3] deals with Delta-type opioid receptor (Homo sapiens, UniProt P41143). The experiment in a line: Counterscreen for agonists of heterodimerization of the mu 1 (OPRM1) and delta 1 (OPRD1) opioid receptors: Luminescence-based cell-based high throughput dose response assay to identify agonists of OPRD1 homodimerization. [Related pubchem assays (depositor defined):AID504326, AID504355, AID504692, AID504904, AID504905]. In general terms: A counterscreen serves to expose hits that act by an unwanted route or on another target.

Molecules are shown by their SMILES. The source made the active and inactive calls. A value given as a limit tells only on which side of the number the result lay.

Chain of Delta-type opioid receptor (P41143 whole entry): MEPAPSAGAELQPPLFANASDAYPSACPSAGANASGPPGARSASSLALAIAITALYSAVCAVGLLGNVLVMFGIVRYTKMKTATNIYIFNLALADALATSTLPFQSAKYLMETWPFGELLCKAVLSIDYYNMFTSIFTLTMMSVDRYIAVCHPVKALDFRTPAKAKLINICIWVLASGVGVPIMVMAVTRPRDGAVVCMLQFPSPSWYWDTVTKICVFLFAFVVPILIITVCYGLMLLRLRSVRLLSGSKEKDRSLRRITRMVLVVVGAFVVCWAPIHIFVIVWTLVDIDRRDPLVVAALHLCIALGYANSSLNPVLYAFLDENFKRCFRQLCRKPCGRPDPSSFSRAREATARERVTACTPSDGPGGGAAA

As a reminder, the IC50 is the concentration needed to halve the response being measured. In general, AC50 refers to the concentration giving half of the maximal activity seen. As for `Oc1nc(Nc2ccccc2Cl)cc2ccccc12`, in test [1], the half-maximal inhibitory concentration (IC50) is 6.11 µM (active). Moreover, the concentration at half-maximal activity (AC50) in test [2] was 9.33 µM (active).
Usually EC50 stands for the concentration giving half of the maximal effect. For the compound `O=C1C=C(c2c(O)ccc3ccccc23)c2ccccc2C1=O`, in test [3], the EC50 is > 92.4 µM (inactive).
For `Cc1nc2c(=O)n(C)c(=O)nc-2n(C)n1`, in test [1], the IC50 was 0.0375 µM (active). Further, the AC50 in test [2] is 0.0978 µM (active).
